Tests used:
[1] = target: Sigma 2 receptor; experiment: Evaluated for the binding affinity towards sigma 2 receptor by displacing the radioligand [3H]DTG in guinea-pig brain cortex.; set-up: species or system Cavia porcellus
[2] = target: Sigma non-opioid intracellular receptor 1 (Rattus norvegicus, UniProt Q9R0C9); experiment: Evaluated for the binding affinity towards sigma 1 receptor by displacing the radioligand [3H]-SKF- 10047 in whole rat brain membrane.; assay type: cell membranes
[3] = target: Sigma non-opioid intracellular receptor 1 (Rattus norvegicus) (UniProt Q9R0C9); experiment: IC50 ratio; sigma 2 to sigma 1; conditions: Cavia porcellus
[4] = target: Sigma non-opioid intracellular receptor 1 (Rattus norvegicus) (UniProt Q9R0C9); experiment: IC50 ratio; sigma 1 to sigma 2; conditions: Cavia porcellus

Sigma non-opioid intracellular receptor 1 (Rattus norvegicus), sequence (Q9R0C9 whole entry): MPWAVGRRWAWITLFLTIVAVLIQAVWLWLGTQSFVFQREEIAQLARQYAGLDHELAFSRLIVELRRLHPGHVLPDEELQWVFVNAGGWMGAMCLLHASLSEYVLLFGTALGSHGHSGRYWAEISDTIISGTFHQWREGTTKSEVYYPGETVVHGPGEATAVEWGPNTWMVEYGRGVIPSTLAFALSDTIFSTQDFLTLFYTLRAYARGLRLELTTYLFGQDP
Sigma non-opioid intracellular receptor 1, sequence (Q9R0C9 whole entry): as above

SMILES | IC50 [1] | IC50 [2] | Ratio [3] | Ratio [4]
COc1ccc2c(c1)C(CCCN1CCCC(C)(C)C1)CCC2 (centres undefined) | 109 nM | 22 nM | 5 | –
CC1(C)CCCN(CCCCC2CCCc3ccccc32)C1 (centres undefined) | 5.5 nM | 0.69 nM | 8 | –
CC1(C)CCCN(CCCC2CCCc3c(O)cccc32)C1 (centres undefined) | 100 nM | 41 nM | 2 | –
CC1(C)CCCN(CCCC2CCc3ccccc32)C1 (centres undefined) | 4.5 nM | 6.9 nM | 0.6 | 1.5
COc1ccc2c(c1)C(CCCCN1CCCC(C)(C)C1)CCC2 (centres undefined) | 0.44 nM | 25.6 nM | – | 58
COc1cccc2c1CCCC2CCCN1CCCC(C)(C)C1 (stereo in doubt; (-)-22) [listing 1 of 2 here] | – | – | 131 | –
COc1cccc2c1CCCC2CCCN1CCCC(C)(C)C1 (stereo in doubt; (-)-22) [listing 2 of 2 here] | 111 nM | 0.85 nM | – | –
COc1ccc2c(c1)CCCC2CCCCN1CCCC(C)(C)C1 (centres undefined) | 0.016 nM | 2150 nM | – | > 100000
COc1cccc2c1CCCC2CCCN1CCCC(C)(C)C1 (single isomer, unassigned; (+)) [listing 1 of 2 here] | – | – | 1340 | –
CC1(C)CCCN(CCCCCC2CCCc3ccccc32)C1 (centres undefined) | 0.008 nM | 1520 nM | – | > 100000
COc1cccc2c1CCCC2CCCN1CCCC(C)(C)C1 (racemic) [listing 1 of 2 here] | 138 nM | 0.48 nM | – | –
COc1ccc2c(c1)CCCC2CCCCCN1CCCC(C)(C)C1 (centres undefined) | 0.03 nM | 0.62 nM | – | 21
COc1ccc2c(c1)CCC2CCCN1CCCC(C)(C)C1 (centres undefined) | 1.01 nM | 4660 nM | – | 4610
COc1cccc2c1CCC2CCCCN1CCCC(C)(C)C1 (centres undefined) | 4.6 nM | 9.3 nM | 0.5 | 2
CC1(C)CCCN(CCCC2=CCc3ccccc32)C1 | 1.09 nM | 0.99 nM | 1 | 1
CC1(C)CCCN(CCCCCc2ccccc2)C1 | 10 nM | 5830 nM | – | 583
COc1ccc2c(c1)CCCC2CCCN1CCCC(C)(C)C1 (centres undefined) | 88 nM | > 10000 nM | – | > 114
COc1cccc2c1CCCC2CCCN1CCCC(C)(C)C1 (single isomer, unassigned; (+)) [listing 2 of 2 here] | 119 nM | 0.089 nM | – | –
CC1(C)CCCN(CCCC2CCCc3ccccc32)C1 (centres undefined) | 135 nM | 252 nM | 0.5 | 2
COc1cccc2c1CCCC2CCCN1CCCC(C)(C)C1 (racemic) [listing 2 of 2 here] | – | – | 287 | –
CC1(C)CCCN(CCCCC2=CCCc3ccccc32)C1 | 1.1 nM | 9450 nM | – | 8590
CC1(C)CCCN(CCC2CCCc3ccccc32)C1 (centres undefined) | 1.1 nM | > 10000 nM | – | > 9090
COc1cccc2c1CCCC2CCCCN1CCCC(C)(C)C1 (centres undefined) | 129 nM | 978 nM | – | 8

From ChEMBL document CHEMBL1131293, “N-[omega-(Tetralin-1-yl)alkyl] derivatives of 3,3-dimethylpiperidine are highly potent and selective sigma1 or sigma2 ligands” (J Med Chem, 1998)
